Experimental data published in PMC12396409, “Screening and hit evaluation of a microbial metabolite library against the pathogenic Plasmodium falciparum and Toxoplasma gondii parasites” (International Journal for Parasitology: Drugs and Drug …, 2025).
Like-named read-outs stand apart in the source and are kept apart here. Where a SMILES comes first, the peptide text is derived from it. Bridges are numbered along the chain shown (N, C = ends). [ ]: non-standard residue; d: D form. The star is where a group is joined. Octatrienoyl(2E,4E,6E) = C/C=C/C=C/C=C/C(=O)*; NMeA = CN[C@@H](C)C(=O)O

Key:
[1] = tested on: P. falciparum 3D7 parasites; experiment: P. falciparum growth inhibition assay, 1-cycle (72 h treatment), SYBR DNA staining (library screen at 2 μg/mL and dose-response); format: cell-based, Plasmodium falciparum; conditions: for activity at 2 µg/mL: Plasmodium falciparum
[2] = tested on: P. falciparum 3D7 parasites; experiment: P. falciparum growth inhibition assay, 2-cycle (120 h treatment), delayed-death screen and dose-response; format: cell-based, Plasmodium falciparum; conditions: for activity at 2 µg/mL: Plasmodium falciparum
[3] = tested on: T. gondii RH strain (RH-Tub-eYFP) tachyzoites; experiment: microbe, parasite or virus in culture; format: cell-based, Toxoplasma gondii; conditions: 72 h, 72 h; for percent parasite growth at 2 µg/mL: Toxoplasma gondii
[4] = P. falciparum, 72 h, screen at 2 μg/mL, replicate 1
[5] = P. falciparum, 72 h, screen at 2 μg/mL, replicate 2
[6] = P. falciparum, 120 h, screen at 2 μg/mL, replicate 1
[7] = P. falciparum, 120 h, screen at 2 μg/mL, replicate 2
[8] = T. gondii, screen at 2 μg/mL, replicate 1
[9] = T. gondii, screen at 2 μg/mL, replicate 2

C/C=C/C/C=C/CCC(=O)[C@H]1O[C@H]1C(N)=O [Cerulenin]
activity at 2 µg/mL ([1]; 3D7, P. falciparum, 72 h, screen at 2 μg/mL, replicate 1, read-out: Pf_72h_%Growth_Rep1): 86.4% | activity at 2 µg/mL ([1]; 3D7, P. falciparum, 72 h, screen at 2 μg/mL, replicate 2, read-out: Pf_72h_%Growth_Rep2): 80.4% | activity at 2 µg/mL ([2]; 3D7, P. falciparum, 120 h, screen at 2 μg/mL, replicate 1, read-out: Pf_120h_%Growth_Rep1): 137% | activity at 2 µg/mL ([2]; 3D7, P. falciparum, 120 h, screen at 2 μg/mL, replicate 2, read-out: Pf_120h_%Growth_Rep2): 85.1% | percent parasite growth at 2 µg/mL ([3]; T. gondii, screen at 2 μg/mL, replicate 1, read-out: Tg_72h_%Growth_Rep1): 79% | percent parasite growth at 2 µg/mL ([3]; T. gondii, screen at 2 μg/mL, replicate 2, read-out: Tg_72h_%Growth_Rep2): 81.8%

C=C1C(=O)C[C@@H]2[C@H]3CC[C@@H](C(=O)O)[C@@]12CC3(C)C [Terrecyclic Acid]
Pf_72h_%Growth_Rep1 [1, 4]: 17.94% | Pf_72h_%Growth_Rep2 [1, 5]: 13.49% | Pf_120h_%Growth_Rep1 [2, 6]: 35.11% | Pf_120h_%Growth_Rep2 [2, 7]: 10.18% | Tg_72h_%Growth_Rep1 [3, 8]: 40.31% | Tg_72h_%Growth_Rep2 [3, 9]: 50.53%

CCCCCCCCCC(=O)N[C@H]1[C@H](Oc2c3cc4cc2Oc2ccc(cc2Cl)[C@@H](O[C@@H]2O[C@H](CO)[C@@H](O)[C@H](O)[C@H]2NC(C)=O)[C@@H]2NC(=O)[C@H](NC(=O)[C@@H]4NC(=O)[C@H]4NC(=O)[C@H](Cc5ccc(c(Cl)c5)O3)NC(=O)[C@H](N)c3ccc(O)c(c3)Oc3cc(O)cc4c3)c3ccc(O)c(c3)-c3c(O[C@H]4O[C@H](CO)[C@@H](O)[C@H](O)[C@@H]4O)cc(O)cc3[C@@H](C(=O)O)NC2=O)O[C@H](CO)[C@@H](O)[C@@H]1O [Teicoplanin A2-3]
activity at 2 µg/mL ([1]; 3D7, 72 h, P. falciparum, 72 h, parasite screen 2 μg/mL, % growth, replicate 1, read-out: Pf_72h_%Growth_Rep1): 88.9% | activity at 2 µg/mL ([1]; 3D7, 72 h, P. falciparum, 72 h, parasite screen 2 μg/mL, % growth, replicate 2, read-out: Pf_72h_%Growth_Rep2): 128% | activity at 2 µg/mL ([2]; 3D7, 120 h, P. falciparum, 120 h, parasite screen 2 μg/mL, % growth, replicate 1, read-out: Pf_120h_%Growth_Rep1): 110% | activity at 2 µg/mL ([2]; 3D7, 120 h, P. falciparum, 120 h, parasite screen 2 μg/mL, % growth, replicate 2, read-out: Pf_120h_%Growth_Rep2): 97% | percent parasite growth at 2 µg/mL ([3]; T. gondii, parasite screen 2 μg/mL, % growth, replicate 1, read-out: Tg_72h_%Growth_Rep1): 112% | percent parasite growth at 2 µg/mL ([3]; T. gondii, parasite screen 2 μg/mL, % growth, replicate 2, read-out: Tg_72h_%Growth_Rep2): 84.1%

CC[C@H]1OC(=O)[C@H](C)[C@@H](O[C@H]2C[C@@](C)(OC)[C@@H](O)[C@H](C)O2)[C@H](C)[C@@H](O[C@@H]2O[C@H](C)C[C@H](NC)[C@H]2O)[C@](C)(O)C[C@@H](C)C(=O)[C@H](C)[C@@H](O)[C@]1(C)O [Demethylerythromycin A, N-]
Pf_72h_%Growth_Rep1 [1, 4]: 87.44% | Pf_72h_%Growth_Rep2 [1, 5]: 93.22% | Pf_120h_%Growth_Rep1 [2, 6]: 108.40% | Pf_120h_%Growth_Rep2 [2, 7]: 97.63% | Tg_72h_%Growth_Rep1 [3, 8]: 111.33% | Tg_72h_%Growth_Rep2 [3, 9]: 103.06%

CCCCCCC(=O)CCCCCC/C=C/C[C@@H](O)[C@H](O)[C@@](N)(CO)C(=O)O [BIA-M1219]
Pf_72h_%Growth_Rep1 ([1]; P. falciparum 3D7, 72 h, parasite screen at 2 μg/mL, % growth, replicate 1): 77.20% | Pf_72h_%Growth_Rep2 ([1]; P. falciparum 3D7, 72 h, parasite screen at 2 μg/mL, % growth, replicate 2): 44.93% | Pf_120h_%Growth_Rep1 ([2]; P. falciparum 3D7, 120 h, parasite screen at 2 μg/mL, % growth, replicate 1): 68.80% | Pf_120h_%Growth_Rep2 ([2]; P. falciparum 3D7, 120 h, parasite screen at 2 μg/mL, % growth, replicate 2): 36.84% | Tg_72h_%Growth_Rep1 ([3]; T. gondii, parasite screen at 2 μg/mL, % growth, replicate 1): 113.89% | Tg_72h_%Growth_Rep2 ([3]; T. gondii, parasite screen at 2 μg/mL, % growth, replicate 2): 86.95%

C/C=C/C=C/C=C/C(=O)N[C@@H](Cc1ccccc1)C(=O)N[C@H]1COC(=O)[C@@H]2CCCN2C(=O)[C@H](C)NC(=O)[C@H](C)N(C)C(=O)[C@@H]2CCCN2C1=O [A 54556B] ({Octatrienoyl(2E,4E,6E)}-FSP[NMeA]AP; ester 2-C)
Pf_72h_%Growth_Rep1 ([1]; library screen at 2 μg/mL, 72 h, % growth, replicate 1): 78.68% | Pf_72h_%Growth_Rep2 ([1]; library screen at 2 μg/mL, 72 h, % growth, replicate 2): 74.34% | Pf_120h_%Growth_Rep1 ([2]; library screen at 2 μg/mL, 120 h, % growth, replicate 1): 65.42% | Pf_120h_%Growth_Rep2 ([2]; library screen at 2 μg/mL, 120 h, % growth, replicate 2): 57.54% | Tg_72h_%Growth_Rep1 ([3]; library screen at 2 μg/mL, % growth, replicate 1): 115.90% | Tg_72h_%Growth_Rep2 ([3]; library screen at 2 μg/mL, % growth, replicate 2): 86.45%

COc1ccc(C2CC(=O)c3c(O)cc(OC4OC(COC5OC(C)C(O)C(O)C5O)C(O)C(O)C4O)cc3O2)cc1O (stereo not drawn) [BIA-H1766]
Pf_72h_%Growth_Rep1 ([1]; P. falciparum 3D7, 72 h, library screen at 2 μg/mL, % growth, replicate 1): 83.53% | Pf_72h_%Growth_Rep2 ([1]; P. falciparum 3D7, 72 h, library screen at 2 μg/mL, % growth, replicate 2): 99.72% | Pf_120h_%Growth_Rep1 ([2]; P. falciparum 3D7, 120 h, library screen at 2 μg/mL, % growth, replicate 1): 111.90% | Pf_120h_%Growth_Rep2 ([2]; P. falciparum 3D7, 120 h, library screen at 2 μg/mL, % growth, replicate 2): 121.98% | Tg_72h_%Growth_Rep1 ([3]; T. gondii RH, library screen at 2 μg/mL, % growth, replicate 1): 124.64% | Tg_72h_%Growth_Rep2 ([3]; T. gondii RH, library screen at 2 μg/mL, % growth, replicate 2): 85.96%
